“Also recorded” adds a separate entry of the source. Read-outs that look alike come from different tables or passages of the source.
Assays:
[1] = type: in vivo, human; conditions: for Effect of multiple-dose cilofexor on pravastatin exposure (AUC and Cmax): pravastatin 40 mg; for Effect of multiple-dose cilofexor on pravastatin exposure (AUC and Cmax) / Effect of multiple-dose cilofexor on rosuvastatin exposure (AUC and Cmax): vs alone; for Effect of multiple-dose cilofexor on rosuvastatin exposure (AUC and Cmax): rosuvastatin 10 mg; for Effect of multiple-dose cilofexor on midazolam exposure (AUC and Cmax): midazolam 2 mg, vs midazolam alone
CYP3A [2] = conditions: in vitro; cited from earlier work
[3] = cited from earlier work
[4] = type: in vivo, human; conditions: for Effect of grapefruit juice on cilofexor exposure (AUC and Cmax): grapefruit juice 16 ounces; for Effect of grapefruit juice on cilofexor exposure (AUC and Cmax) / Effect of multiple-dose voriconazole on cilofexor exposure (AUC): vs cilofexor alone; for Effect of multiple-dose voriconazole on cilofexor exposure (AUC): voriconazole 200 mg BID
[5] = tested on: sodium taurocholate co-transporting polypeptide (NTCP); conditions: in vitro; cited from earlier work
OATP2B1 [6] = conditions: in vitro; cited from earlier work
[7] = tested on: breast cancer resistance protein (BCRP); conditions: in vitro; cited from earlier work
[8] = tested on: organic anion transporter (OAT)1; conditions: in vitro; cited from earlier work
BCRP = conditions: in vitro; cited from earlier work
OATP1B1 [9] = conditions: in vitro; ref data on file, Gilead Sciences, Inc.; cited from earlier work
OATP1B3 [10] = conditions: in vitro; ref data on file, Gilead Sciences, Inc.; cited from earlier work
[11] = dose range of 10 to 100 mg; cited from earlier work
CYP3A [12] = conditions: in vitro; cited from earlier work; remark: listed apart in the source
P-gp = conditions: in vitro; cited from earlier work
P-glycoprotein (P-gp) = conditions: in vitro; cited from earlier work
CYP2C8 [13] = conditions: in vitro; cited from earlier work
NTCP = conditions: in vitro; cited from earlier work
OAT3 = conditions: in vitro; cited from earlier work
CYP2C8 [14] = conditions: in vitro; rCYP2C8 showing the fastest rate of metabolism; cited from earlier work
[15] = cited from earlier work; remark: listed apart in the source
bile salt export pump = conditions: in vitro; cited from earlier work
OATP1B3 [16] = conditions: in vitro; cited from earlier work
[17] = tested on: multidrug and toxin extrusion protein (MATE) 1; conditions: in vitro; cited from earlier work
CYP2C9 = conditions: in vitro; cited from earlier work
OATP1B1 [18] = conditions: in vitro; cited from earlier work
CYP2C19 = conditions: in vitro; cited from earlier work
[19] = tested on: organic cation transporter (OCT)2; conditions: in vitro; cited from earlier work
MATE2-K = conditions: in vitro; cited from earlier work
OATP2B1 [20] = conditions: in vitro; ref data on file, Gilead Sciences, Inc.; cited from earlier work
[21] = following multiple-dose rifampin 600 mg
[22] = with multiple-dose gemfibrozil 600 mg BID
[23] = with single-dose cyclosporine 600 mg
[24] = with single-dose rifampin 600 mg

## CC[C@H](C)C(=O)O[C@H]1C[C@H](O)C=C2C=C[C@H](C)[C@H](CC[C@@H](O)C[C@@H](O)CC(=O)O)[C@H]21 [pravastatin]
[1]
  Effect of multiple-dose cilofexor on pravastatin exposure (AUC and Cmax): did not affect; also recorded: did not alter
[1]; listed as Pravastatin
  Effect of multiple-dose cilofexor on pravastatin exposure (AUC and Cmax): similar

## CC(C)c1nc(N(C)S(C)(=O)=O)nc(-c2ccc(F)cc2)c1/C=C/[C@@H](O)C[C@@H](O)CC(=O)O [rosuvastatin]
[1]
  Effect of multiple-dose cilofexor on rosuvastatin exposure (AUC and Cmax): did not alter
[1]; listed as Rosuvastatin
  Effect of multiple-dose cilofexor on rosuvastatin exposure (AUC and Cmax): similar

## Cc1ncc2n1-c1ccc(Cl)cc1C(c1ccccc1F)=NC2 [midazolam]
[1]
  Effect of multiple-dose cilofexor on midazolam exposure (AUC and Cmax): did not affect; also recorded: did not alter
[1]; listed as Midazolam
  Effect of multiple-dose cilofexor on midazolam exposure (AUC and Cmax): similar

## CC(C)c1c(C(=O)Nc2ccccc2O)c(-c2ccccc2)c(-c2ccc(F)cc2)n1CC[C@@H](O)C[C@@H](O)CC(=O)O [o-OH-atorvastatin, o-hydroxyatorvastatin]
[1]; atorvastatin 10 mg
  o-OH-atorvastatin AUC and Cmax with multiple-dose cilofexor compared to atorvastatin alone: similar

## O=C(O)c1ccnc(N2CC(O)(c3ccc(OCc4c(-c5c(Cl)cccc5Cl)noc4C4CC4)cc3Cl)C2)c1 [Cilofexor]
CYP3A [2]
  Substrate of CYP3A: substrate
[3]
  Protein binding in human plasma: > 99%
[4]; [21]
  Cilofexor AUC compared with cilofexor alone: 33%
  Cilofexor Cmax compared with cilofexor alone: 35%
[4]
  Effect of grapefruit juice on cilofexor exposure (AUC and Cmax): similar
  Effect of multiple-dose voriconazole on cilofexor exposure (AUC): similar
[4]; listed as cilofexor
  Effect of grapefruit juice on cilofexor exposure (AUC and Cmax): did not affect
  Effect of multiple-dose voriconazole on cilofexor exposure (AUC): did not affect; also recorded: did not impact
[4]; [22]
  Cilofexor AUC compared with cilofexor alone: 175%
  Cilofexor Cmax compared with cilofexor alone: 139%
[4]; with multiple-dose voriconazole
  Cilofexor Cmax lower than cilofexor alone: 23%
[4]; with single-dose cyclosporine
  Median cilofexor t½ longer than cilofexor alone: approximately 2.5 fold
[4]; [23]
  Cilofexor AUC compared with cilofexor alone: 651%
  Cilofexor Cmax compared with cilofexor alone: 512%
[4]; with single-dose rifampin
  Median cilofexor t½ longer than cilofexor alone: approximately 2.8 fold
[4]; [24]
  Cilofexor AUC compared with cilofexor alone: 795%
  Cilofexor Cmax compared with cilofexor alone: 547%
[5]
  Substrate of NTCP: substrate
OATP2B1 [6]
  Substrate of OATP2B1: substrate
[7]
  Substrate of BCRP: substrate
[8]
  Inhibition of OAT1: little to no inhibition
BCRP
  Inhibition of BCRP: little to no inhibition
OATP1B1 [9]
  IC50: 680 nM
OATP1B3 [10]
  IC50: 410 nM
[11]
  Dose proportionality of plasma exposure: less than dose-proportional
CYP3A [12]
  Mechanism-based inhibition: not a mechanism-based inhibitor
P-gp
  Inhibition of P-gp: little to no inhibition
P-glycoprotein (P-gp)
  Substrate of P-gp: substrate
CYP2C8 [13]
  Mechanism-based inhibition: not a mechanism-based inhibitor
NTCP
  Inhibition of NTCP: little to no inhibition
OAT3
  Inhibition of OAT3: little to no inhibition
CYP2C8 [14]
  Substrate of CYP2C8: substrate
[15]
  Cilofexor dose eliminated in feces: 96.7%
  Dose remaining as intact cilofexor (feces): 34.1%
Bile salt export pump
  Inhibition of bile salt export pump: little to no inhibition
OATP1B3 [16]
  Substrate of OATP1B3: substrate
[17]
  Inhibition of MATE1: little to no inhibition
CYP2C9
  Mechanism-based inhibition: not a mechanism-based inhibitor
OATP1B1 [18]
  Substrate of OATP1B1: substrate
CYP2C19
  Substrate of CYP2C19: substrate
[19]
  Inhibition of OCT2: little to no inhibition
MATE2-K
  Inhibition of MATE2-K: little to no inhibition
OATP2B1 [20]
  IC50: 210 nM

Source: article PMC10085937 (Clinical Pharmacokinetics, 2023)
